Values of other authors, collected in EP0438873A1, “Inhibitor of ribonucleotide reductase of herpes viruses” (MERCK & CO. INC., priority 1989, dated 1991).
Where no end group is shown, it is not given here.

Tested on: ribonucleotide reductase enzyme of herpes simplex virus
Details: from Dutia et al., Cohen et al., U.S. Patent No. 4,795,740

Substance	inhibited in vitro the activity of this enzyme (HSV ribonucleotide reductase)
Tyr Ala Gly Ala Val Val Asn Asp Leu (YAGAVVNDL; printed: Tyr Ala Gly Ala Val Val Asn Asp Leu) [the nonapeptide disclosed by Dutia et al. and Cohen et al]	inhibited
YGAVVNDL [8-desalanine homolog of the nonapeptide, disclosed by Dutia et al]	inhibited
